Laboratory results as given in patent publication US10570176B2, “Anti-hepatitis B virus X protein polypeptide pharmaceutical” (priority 2015, dated 2020).
Non-standard residues stand in square brackets, D forms with d. Residues, ends and D or L forms follow the SMILES beside them.

Legend:
[1] = tested on: liver cancer HepAD38 cells integrated with HVB DNA; experiment: HBeAg secretion ELISA in HepAD38 cells; type: cell-based
Method: 3. Analysis of function of D-TTK001 on HBeAg secreation in liver cancer cells utilizing enzyme-linked immunosorbent assay (ELISA)
(i) Biosafety cabinet was ultraviolet sterilized for 30 min and purged for 30 min; DMEM/F12 (1:1) culture medium containing 15% fetal bovine serum, HepAD38 cells (or HepG2.2.15 cells) were taken out, sterilized with 75% alcohol, and placed in the biosafety cabinet.
(ii) Under aseptic conditions, discard old culture medium, add 3 mL 1×PBS each time, wash twice, add 1 mL 0.25% trypsin, the cells were digested until cell rounding as observed in microscope. Add 5 mL culture medium, dispense cells, count with hemocytometer, and dilute with culture medium to a cell number of 1˜2×10^4 cells/mL.
(iii) Plating 96-well plate. Under aseptic conditions, discard old culture medium, add 3 mL 1×PBS each time, wash twice, add 1 mL 0.05% trypsin, the cells were digested until cell rounding as observed in microscope. Add 10 mL culture medium, dispense cells, count with hemocytometer, and dilute with DMEM/F12(1:1) culture medium, add 100 μL cell suspension into each well to a cell number of 1˜2×10^3 cells/mL. The outer-most wells are not added with cells. Culturing until cell attachment (usually 12 hrs.) and extension. Subsequent tests can be conducted when cells are in good condition.
(2) Applying D-TTK001 (or L-TTK001, i.e., anti-HBxP1#) to liver cancer HepAD38 cells (or HepG2.2.15 cells)
10 mM D-TTK001 (or L-TTK001) mother solution was serially diluted from high concentration to low concentration, added into liver cancer HepAD38 cells (or HepG2.2.15 cells) culture solution to obtain final concentrations of D-TTK001 (or L-TTK001) of 0.1 μM, 1 μM, 10 and 100 μM in respective groups. […]
(3) Applying ELISA to measure HBeAg content in HepAD38 cell (or HepG2.2.15 cell) culture medium
(i) Balancing: place HBeAg assay kit in room temperature for 30 min.
(ii) Preparing solution: dilute concentrated wash liquid for 25 times with purified water.
(iii) Taking out the plate: take out the reaction plate according to experimental requirements (3 wells for negative control, 1 well for positive control, and 1 well for blank control).
(iv) Adding sample: add 75 μL of test samples or negative/positive control into respective wells, gently shake and mix.
(v) Incubating: after sealed with microplate sealer, incubate at 37° C. for 60 min.
(vi) Adding enzyme: add 50 μL of enzyme conjugates into each well except for blank wells, gently shake and mix.
(vii) Incubating: after sealed with microplate sealer, incubate at 37° C. for 30 min.
(viii) Washing plate: remove microplate sealer carefully, manually wash plate for 5 times, pat dry.
(ix) Developing color: add 50 μL each of color-developing agent A and B liquid, gently shake and mix, develop color in dark placed at 37° C. for 30 min.
(x) Stopping: add 50 μL of stop solution into each well, gently shake and mix, measure the result in ten minutes. Set wavelength of microplate reader to 450 nm, measure OD value for each well after zero setting with blank wells.
The invention also investigates the role of the functional variants of the polypeptide and functional fragments thereof. The sequences as shown in the following table are artificially synthesized D-amino acid substituted sequences on the basis of L-TTK001 (i.e., anti-HBxP1#). The polypeptide fragments were artificially synthesized according to the sequences (method as above), and then, above-mentioned ELISA method was adopted to observe the change in the functions of the polypeptides.

HBV transgenic mice = experiment: Pathological observation of liver tissue of HBV transgenic mice; type: in vivo; conditions: 5 mg/kg, tail intravenous injection, 3 weeks treatment
Method: Prepare D-TTK001 aseptically. Administer 2.5 mg/kg (10 mice) or 5.0 mg/kg (42 mice) based on mice weight through tail intravenous injection in a volume of 50 μL. Administer 50 μL of sterile PBS to blank control group (10 mice). Mice are 6-8 months old, half male and half female. Inject daily for 3 weeks (21 days in total). Take artery blood from mice tail before administration for future measurement of HBV DNA content in mice blood, record as T0 group. Take artery blood from mice tail after one week (T1+ group), two weeks (T2+ group), and three weeks (T3+ group) of administration. Take blood after one week of stopping administration (T4 group). Blood samples were standed in room temperature for 2-4 hours to prepare serum. Store samples in −80° C. refrigerator for future measurement of HBV DNA content in mice blood.
After above experiments on HBV transgenic mice were finished, mice were sacrificed, and liver tissue was taken, fixed with formalin, embed with conventional method, to prepare tissue biopsies, pathological observation was then conducted.

[2] = Acute toxicity test in Kunming white mice; type: in vivo; conditions: 500 mg/kg, tail intravenous injection, observed 24 hrs
Method: Control group and experimental group each consists of 10 Kunming white mice, with 5 females and 5 males in each group, respectively. Experimental group were injected with polypeptide D-TTK001 with the concentration of 500 mg/kg (10 mg lyophilized polypeptide dissolved in 0.8 mL sterilized distilled water) by tail intravenous injection; control group were injected with 0.8 mL sterilized distilled water. Consecutively observing the mice for 24 hrs. after injection.

in vivo = conditions: rat, plasma, iv, 3.5 mg/kg
Text: Blood samples were collected and placed the heparinized test tubes according to blood collection times.

[3] = tested on: HepG2-X cells inoculated tumor in nude mice; experiment: Survival of nude mice bearing HepG2-X inoculated tumor; type: in vivo; conditions: 0.1 mg/kg or 5.0 mg/kg, tail i.v. daily for 30 days
Method: Suspend HepG2-X cells at exponential phase by treating with trypsin, count the number of cells, dilute to 1×10^7 cells/mL with sterile physiological saline, and then store in ice water. Take two female BALB/C mice of 4˜6 weeks age: i) one mouse in control group, inject 0.2 mL of above diluted cells to the armpit of right forelimb for each mouse, then only inject 0.5 mL of sterilized distilled water (without polypeptide drugs); ii) one mouse in experimental group with an administration dose of 10 mg/kg weight. Inject 0.2 mL of above diluted cells to the armpit of right forelimb for each mouse, after 20 days of injection, remove tumor tissue aseptically, cut into small tissue pieces, back inoculate to female BALB/C mice of 4˜6 weeks age for 18 mice in total. After tumor volume (V=L×W^2 0.5) reaches 100 mm^3, divide 18 mice into 3 groups each having 6 mice. The first group is control group, tail intravenous injecting with sterile PBS. […] Inject daily for 30 days, measure mice weight and tumor volume before each injection, and observe survival time of nude mice. After mice dies, perform analysis using Kaplan-Meier method to plot survival curve, Log-Rank is employed for statistical analysis.

HepAD38 cells = experiment: MTT assay, proliferation of HepAD38 cells; type: cell-based; conditions: 0.1, 1, 10, 100 μM, 48 hrs
Method: (1) Plating cells: suspend HepAD38 cells at exponential phase in RPMI1640 medium with 10% FBS, and plate 4000-5000 cells in a 96-well plate with 100 μL per well.
(2) Culturing cells: within 12 hrs. for adhesion of cultured cells, add different concentrations of synthesized D-TTK001 (or L-TTK001) polypeptides from Example 1 (0.1 μM, 1 μM, 10 μM and 100 μM) into 8 wells for each concentration, and incubate for 48 hrs. in common condition.
(3) Coloration: add 20 μL of MTT solution (5 mg/mL MTT in PBS buffer (pH7.4)) for each well.
(4) Incubate for 4 hrs., and carefully aspirate off the supernatant from the wells. Add 150 μL of DMSO into each well, shake for 10 min until the crystals were dissolved.
(5) Comparison: Read in an ELISA reader at 490 nm to measure the absorbance for each well. Results were calculated using Student's t-test.

For `CSCC[C@@H](NC(=O)[C@H](NC(=O)[C@@H](C)NC(=O)[C@@H](CO)NC(=O)CN)C(C)C)C(=O)N[C@H](Cc1ccccc1)C(=O)N[C@H](CO)C(=O)N[C@H](CO)C(=O)N[C@H](CCCCN)C(=O)N[C@H](CCC(=O)O)C(=O)N[C@H](CCCNC(=N)N)C(=O)NCC(=O)O` [D-TTK001, Gly-D-Ser-D-Ala-D-Val-D-Met-D-Phe-D-Ser-D-Ser-D-Lys-D-Glu-D-Arg-Gly] (H-G[dS][dA][dV][dM][dF][dS][dS][dK][dE][dR]G-OH; N-terminus and C-terminus assumed), the “Inhibition of HBeAg secretion levels” value ([1]; 10 μM) was “most significant effect”, the “Minimum effective dose on HBeAg secretion levels” value ([1]; 0.1, 1, 10, 100 μM) was 0.1 µM and the “ballooning degeneration of hepatocytes in liver tissue” value (HBV transgenic mice) was “none of 6 mice in experimental group showed ballooning degeneration of hepatocytes”. For the same molecule, the “acute toxicity: behaviors” value [2] was “do not have abnormal behaviors”, the “acute toxicity: changes in weight as compared with control group” value [2] was “no abnormal changes in weight” and the C0 (in vivo) was 36500 ng/mL. The Vd (in vivo) was 0.207 L/kg, the AUC(0-t) (in vivo; AUC0-t, Mean, rats, intravenous injection 3.5 mg/kg, mean of 6) was 20800 ng·h/mL and the AUC(0-inf) (in vivo; AUC0-∞, Mean, rats, intravenous injection 3.5 mg/kg, mean of 6) was 24100 ng·h/mL. It also gave a clearance (in vivo; CL, Mean, rats, intravenous injection 3.5 mg/kg, mean of 6) of 3 mL/min/kg, a Cmax (in vivo; Cmax, Mean, rats, intravenous injection 3.5 mg/kg, mean of 6) of 35800 ng/mL and a half-life (in vivo; t½, Mean, rats, intravenous injection 3.5 mg/kg, mean of 6) of 55.3 min. For the same molecule, the “survival of tumor bearing nude mice” value [3] was “clearly prolonged” and the “Minimum effective dose on growth and proliferation (MTT)” value (HepAD38 cells) was 10 µM.
